Measurements taken from US9458092B2, “α-Substituted glycinamide derivative” (KISSEI PHARMACEUTICAL CO., LTD., priority 2013, dated 2016).

Tests used:
TRPM8 [1] = molecular target: T1, TRPM8 (Rattus norvegicus, UniProt Q8R455); settings: cited from earlier work
[2] = tested on: overactive bladder induced by acetic acid; assay: Confirmation test of elongation action of micturition interval of overactive bladder induced by acetic acid; format: in vivo, female SD rats; settings: Rattus norvegicus, iv, interval before administration = 100%
Protocol: Urethane (sigma) was dissolved into pure water by 25% w/v, and female SD rats were anesthetized with 1.25 g/kg urethane by subcutaneous administration. Cannulae were placed in femoral vein and bladder, and the bladder cannula was connected to both a syringe pump and a pressure transducer. Detrusor overactivity was induced by intravesical infusion of 0.25% acetic acid in saline at a rate of 3.6 mL/h, and intravesical pressure was monitored via pressure transducer concurrently. Test compounds were dissolved into a mixture of dimethylacetamide and saline (20:80), and were administered via the femoral vein. When an average of the three micturition interval before administration was taken as 100%, an average of the three micturition interval after administration was calculated as Elongation of micturition interval (%) Dose and results are shown in tables 46 and 47.

TRPM8 [3] = molecular target: T1, TRPM8; assay: Confirmation test of inhibitory effects on icilin-induced wet-dog shakes; format: in vivo, female SD rats; set-up: test compounds were orally administered to female SD rats; from tissue; host or cells: whole animal (female SD rats), endogenous channel; settings: icilin 1 mg/kg i.p. after 1 hour, shakes counted for 5 minutes
Protocol: Test compounds were dissolved in dimethylacetamide (wako), and 0.5% methylcellulose solution (wako) was added to make the solution or suspension containing 5% of dimethylacetamide. At a dose of 3 or 10 mg/kg/5 mL of test compounds were orally administered to female SD rats. After 1 hour, wet-dog shakes were induced by the intrapenitoneal injection of icilin (1 mg/kg) which was dissolved in polyethylene glycol 400 (wako). From 5 minutes after the administration of icilin, wet-dog shakes were counted for 5 minutes. For control example, vehicle (a mixture of dimethylacetamide (wako): 0.5% methylcellulose (wako)=5:95) was administrated similarly, and the number of wet-dog shakes was counted in the same manner. A percent inhibition of wet-dog shakes by test compound was calculated from the following formula: [1-(test compound wet-dog shake count/vehicle wet-dog shake count)]×100.

[4] = 1 mg/kg/ml via the femoral vein
[5] = 1 mg/kg/2 ml via the femoral vein

T1 sequence (Q8R455 whole entry): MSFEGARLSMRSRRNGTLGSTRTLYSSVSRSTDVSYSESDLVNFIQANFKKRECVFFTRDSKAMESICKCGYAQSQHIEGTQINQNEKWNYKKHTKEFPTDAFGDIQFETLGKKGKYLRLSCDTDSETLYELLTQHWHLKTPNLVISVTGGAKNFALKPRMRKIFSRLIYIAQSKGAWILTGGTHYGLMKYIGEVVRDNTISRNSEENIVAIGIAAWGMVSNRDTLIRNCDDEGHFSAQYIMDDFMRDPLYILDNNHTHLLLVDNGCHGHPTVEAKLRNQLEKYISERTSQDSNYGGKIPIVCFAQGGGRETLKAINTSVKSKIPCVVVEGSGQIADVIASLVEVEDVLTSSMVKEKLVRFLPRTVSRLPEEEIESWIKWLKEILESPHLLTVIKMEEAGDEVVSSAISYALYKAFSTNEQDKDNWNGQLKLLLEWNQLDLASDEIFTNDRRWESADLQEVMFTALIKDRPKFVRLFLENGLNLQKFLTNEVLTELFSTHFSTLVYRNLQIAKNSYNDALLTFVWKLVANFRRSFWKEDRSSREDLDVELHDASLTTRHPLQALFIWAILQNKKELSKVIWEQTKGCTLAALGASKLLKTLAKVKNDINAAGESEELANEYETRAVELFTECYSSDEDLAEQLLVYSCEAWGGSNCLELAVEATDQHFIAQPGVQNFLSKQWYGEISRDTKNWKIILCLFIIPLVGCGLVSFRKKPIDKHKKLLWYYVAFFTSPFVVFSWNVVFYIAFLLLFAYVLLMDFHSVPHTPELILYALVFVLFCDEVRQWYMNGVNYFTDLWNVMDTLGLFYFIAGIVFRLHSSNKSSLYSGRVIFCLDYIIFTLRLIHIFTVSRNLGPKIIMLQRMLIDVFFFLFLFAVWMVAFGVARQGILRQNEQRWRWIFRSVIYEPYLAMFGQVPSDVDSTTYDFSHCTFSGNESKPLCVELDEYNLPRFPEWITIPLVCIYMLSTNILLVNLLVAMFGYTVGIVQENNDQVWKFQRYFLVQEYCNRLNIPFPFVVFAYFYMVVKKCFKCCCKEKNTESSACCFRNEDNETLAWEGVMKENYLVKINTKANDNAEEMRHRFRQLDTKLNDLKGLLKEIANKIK

| SMILES | response vs control in vivo at 1 mg/kg [2, 4] | % inhibition of Wet-Dog Shake (TRPM8 [3]; dose 3 mg/kg orally) | % inhibition of Wet-Dog Shake (TRPM8 [3]; dose 10 mg/kg orally) | response vs control in vivo at 1 mg/kg [2, 5] | further results |
| --- | --- | --- | --- | --- | --- |
| Cc1cccc(COc2ccccc2C(=O)N(CCCN)Cc2cccs2)c1.Cl [AMTB, N-(3-aminopropyl)-2-{[(3-methylphenyl)methyl]oxy}-N-(2-thienylmethyl)benzamide hydrochloride] | – | – | – | – | frequency of rhythmic bladder contractions (TRPM8 [1]; anesthetized rats): suppresses; nociceptive reflex responses to bladder distension (TRPM8 [1]; anesthetized rats): suppresses; average blood pressure (TRPM8 [1]; rat, in vivo): decrease |
| COc1ncccc1C(=O)N([C@@H]1CCc2ccc(Cl)cc21)[C@@H](C(N)=O)c1ccccc1 [Example 2-46LP, N-[(R)-carbamoylphenylmethyl]-N-[(R)-6-chloroindan-1-yl]-2-methoxynicotinamide] | 186% | 79% | – | – | – |
| NC(=O)[C@@H](c1cccnc1)N(C(=O)c1ccccc1)[C@@H]1CCc2c(F)cc(Cl)cc21 [Example 2-66LP, N-[(R)-carbamoylpyridin-3-ylmethyl]-N-[(R)-6-chloro-4-fluoroindan-1-yl]benzamide] | 175% | – | 100% | – | – |
| NC(=O)[C@@H](c1ccccc1)N(C(=O)c1cncc(F)c1)[C@@H]1CCc2c(F)cc(Cl)cc21 [Example 2-86LP, N-[(R)-carbamoylphenylmethyl]-N-[(R)-6-chloro-4-fluoroindan-1-yl]-5-fluoronicotinamide] | – | – | 73% | 145% | – |
| COc1ccccc1C(=O)N([C@@H]1CCc2c(F)cc(Cl)cc21)[C@@H](C(N)=O)c1ccccc1 [Example 2-89LP, N-[(R)-carbamoylphenylmethyl]-N-[(R)-6-chloro-4-fluoroindan-1-yl]-2-methoxybenzamide] | – | 100% | – | 196% | – |
| NC(=O)[C@@H](c1ccccc1)N(C(=O)c1cccc2c1OCC2)[C@@H]1CCc2c(F)cc(Cl)cc21 [Example 2-111LP, N-[(R)-carbamoylphenylmethyl]-N-[(R)-6-chloro-4-fluoroindan-1-yl]-2,3-dihydrobenzofuran-7-carboxamide] | – | 91% | – | – | response vs control in vivo at 0.3 mg/kg ([2]; 0.3 mg/kg/2 ml via the femoral vein): 135% |
| Cc1ncccc1C(=O)N([C@@H]1CCc2c(F)cc(F)cc21)[C@@H](C(N)=O)c1ccccc1 [Example 2-131LP, N-[(R)-carbamoylphenylmethyl]-N-[(R)-4,6-difluoroindan-1-yl]-2-methylnicotinamide] | 162% | 100% | – | – | – |
| Cc1scnc1C(=O)N([C@@H]1CCc2c(F)cc(Cl)cc21)[C@@H](C(N)=O)c1ccccc1 [Example 2-147LP, N-[(R)-carbamoylphenylmethyl]-N-[(R)-6-chloro-4-fluoroindan-1-yl]-5-methylthiazole-4-carboxamide] | – | 91% | – | 146% | – |
| NC(=O)[C@@H](c1ccccc1)N(C(=O)c1ccccc1)[C@@H]1CCc2c(F)cc(F)cc21 [Example 2-221LP, N-[(R)-carbamoylphenylmethyl]-N-[(R)-4,6-difluoroindan-1-yl]benzamide] | – | – | 100% | 154% | – |
| NC(=O)[C@@H](c1ccccc1)N(C(=O)c1ccccc1N)[C@@H]1CCc2c(F)cc(F)cc21 [Example 6-1, 2-amino-N-[(R)-carbamoylphenylmethyl]-N-[(R)-4,6-difluoroindan-1-yl]benzamide] | – | – | 89% | 194% | – |
| COc1ncccc1C(=O)N([C@@H]1CCc2c(F)cc(Cl)cc21)[C@@H](C(N)=O)c1ccccc1 [Example 11, N-[(R)-carbamoylphenylmethyl]-N-[(R)-6-chloro-4-fluoroindan-1-yl]-2-methoxynicotinamide] | 162% | 100% | – | – | – |
| Cc1ncccc1C(=O)N([C@@H]1CCc2c(F)cc(Cl)cc21)[C@@H](C(N)=O)c1cccnc1 [Example 12, N-[(R)-carbamoylpyridin-3-ylmethyl]-N-[(R)-6-chloro-4-fluoroindan-1-yl]-2-methylnicotinamide] | 142% | – | 93% | – | – |
| NC(=O)[C@@H](c1ccccc1)N(C(=O)c1cccnc1N)[C@@H]1CCc2c(F)cc(Cl)cc21 [Example 13, 2-amino-N-[(R)-carbamoylphenylmethyl]-N-[(R)-6-chloro-4-fluoroindan-1-yl]nicotinamide] | 184% | 93% | – | – | – |
| Cc1ncccc1C(=O)N([C@@H]1CCc2c(F)cc(Cl)cc21)[C@@H](C(N)=O)c1ccccc1 [Example 14LP, N-[(R)-carbamoylphenylmethyl]-N-[(R)-6-chloro-4-fluoroindan-1-yl]-2-methylnicotinamide] | 181% | 100% | – | – | – |
| Cc1ncsc1C(=O)N([C@@H]1CCc2c(F)cc(Cl)cc21)[C@@H](C(N)=O)c1ccccc1 [Example 15LP, N-[(R)-carbamoylphenylmethyl]-N-[(R)-6-chloro-4-fluoroindan-1-yl]-4-methylthiazole-5-carboxamide] | 188% | 100% | – | – | – |
